The text below walks through data of patent US20030143635A1, “Assay for detection of transferase enzyme activity in drug screening” (AstraZeneca AB, priority 2000, published 2003).

For test [1], the system named is translocase and transferase enzymes. It counts as biochemical, Escherichia coli. The note with it: 100 μM test compound; E. coli AMA1004 membranes; 37° C., 30 min; after subtracting 0% reaction readings.
Method: (§1) (i) The wells of a microtitre plate were individually filled with a total volume of 25 μl of a reaction mixture comprising an aqueous buffer solution of 50 mM HEPES-ammonia (N-[2-Hydroxyethyl]piperazine-N′-[2-ethanesulfonic acid]) (pH 7.5), and 10 mM magnesium chloride 15 μM UDP-MurNAc-L-alanine-γ-D-glutamic acid-m-diaminopimelic acid-D-alanine-D-alanine, 2.5 μM tritiated UDP-N-acetyl glucosamine (0.2 μCi per well), 6 μg of Escherichia coli AMA1004 cell membranes prepared as described below and a solution of test compound (e.g. Tunicamycin, Vancomycin) of varying concentration in 4% dimethylsulphoxide.
(§2) Four wells of the microtitre plate were used as controls: two wells contained no UDP-N-acetylmuramylpentapeptide (0% reaction controls) and a further two wells contained no test compound (100% reaction controls).
(§3) The microtitre plate was incubated at 37° C. for 30 min and thereafter 5 μl of ethylenediaminetetraacetic acid (EDTA) was added to give a final EDTA concentration of 15 mM.
(§4) (ii) After addition of the EDTA, 170 μl of an aqueous suspension of wheatgerm agglutinin-coated scintillation proximity assay beads comprising 500 μg beads in a solution of HEPES-ammonia, pH 7.5, was added to each well such that the final concentration of HEPES-ammonia was 50 mM.
(§5) The plate was left for 3 hours/overnight at room temperature before being counted in the “Microbeta Trilux” counter.
For test [2], the target named is T1, transferase enzyme (Escherichia coli, UniProt P17443).
T1 sequence (P17443 1-355): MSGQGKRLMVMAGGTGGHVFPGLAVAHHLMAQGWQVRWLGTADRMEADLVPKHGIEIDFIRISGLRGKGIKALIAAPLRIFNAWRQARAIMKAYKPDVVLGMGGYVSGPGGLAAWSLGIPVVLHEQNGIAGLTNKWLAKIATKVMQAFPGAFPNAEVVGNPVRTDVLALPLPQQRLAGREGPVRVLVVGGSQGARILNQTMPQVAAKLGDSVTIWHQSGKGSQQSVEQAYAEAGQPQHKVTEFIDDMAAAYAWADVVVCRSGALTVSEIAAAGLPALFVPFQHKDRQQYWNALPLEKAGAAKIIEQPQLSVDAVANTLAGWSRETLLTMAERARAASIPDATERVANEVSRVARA
The experiment in a line: Scintillation proximity assay of the transferase alone, with membranes of E. coli AMA1004 ΔponB::SpcR and pre-formed Lipid I (Example 4). The settings on record: Tunicamycin 10 μg/ml present, 37° C., 5 min, after subtracting 0% reaction readings. It counts as biochemical. On the procedure: Microbiol., (1985), 131, 2839-2845. The plate was incubated for 20 min at 37° C.
(ii) Tunicamycin was then added to a final concentration of 10 μg/ml, followed by a test compound (e.g. Vancomycin or Nisin) of varying concentration in dimethyl sulphoxide. Nisin and Vancomycin are known antagonists of the transferase enzyme.
(iii) Then to the reaction well, in a 5 μl volume, the substrate for the transferase was added: 2.5 μM tritiated UDP-N-acetyl glucosamine (0.5 μCi per well). The microtitre plate was incubated for 5 min at 37° C.
(iv) The reaction was terminated by diluting out the radiolabel i.e. by addition of 25 μl of 200 μM unlabelled UDP-GlcNAc.
(In general: In a scintillation proximity assay essentially only radioactivity close to the scintillant gives light.)

Test [3] concerns the target T2, translocase and transferase enzymes (Escherichia coli, UniProt P0A6W3).
T2 sequence (P0A6W3 1-360): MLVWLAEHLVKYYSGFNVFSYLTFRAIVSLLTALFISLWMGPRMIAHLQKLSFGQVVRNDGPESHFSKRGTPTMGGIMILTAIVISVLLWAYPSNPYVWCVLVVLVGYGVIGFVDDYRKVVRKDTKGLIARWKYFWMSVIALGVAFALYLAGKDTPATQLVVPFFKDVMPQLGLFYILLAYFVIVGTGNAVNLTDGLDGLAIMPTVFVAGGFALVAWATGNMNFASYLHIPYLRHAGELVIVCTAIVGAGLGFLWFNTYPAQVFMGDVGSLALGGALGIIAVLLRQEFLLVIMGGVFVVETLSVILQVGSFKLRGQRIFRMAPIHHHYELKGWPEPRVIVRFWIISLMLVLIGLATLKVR
In kind it is biochemical. The settings on record: 6 μg/ml test compound; E. coli AMA1004 membranes; 37° C., 30 min; after subtracting 0% reaction readings.
Method: as §1, §2, §3, §4, §5

What is called % Inhibition is the change of the read-out against control, counted positive when it falls. What is called remaining activity is the signal under treatment as a percentage of the control signal. The low end stands for a large loss of activity, the high end for a small loss of activity. For the compound `CN[C@H](CC(C)C)C(=O)N[C@H]1C(=O)N[C@@H](CC(N)=O)C(=O)N[C@H]2C(=O)N[C@H]3C(=O)N[C@H](C(=O)N[C@H](C(=O)O)c4cc(O)cc(O)c4-c4cc3ccc4O)[C@H](O)c3ccc(c(Cl)c3)Oc3cc2cc(c3O[C@@H]2O[C@H](CO)[C@@H](O)[C@H](O)[C@H]2O[C@H]2C[C@](C)(N)[C@H](O)[C@H](C)O2)Oc2ccc(cc2Cl)[C@H]1O` [Vancomycin], the “% Inhibition” value in test [1] was 82%. The compound further returned a remaining activity at 100 µM in test [2] (100 μM test compound) of about 50%.
Take Nisin: the “% Enzyme Activity” value in test [2] (10 μg/ml test compound) was “˜30%”.
Turning to Tunicamycin, in test [3], the “% Inhibition” value came out at 104%.
